Test results reported in ChEMBL document CHEMBL1909046, “DrugMatrix in vitro pharmacology data”.

Key:
[1] = biological target: T1, Alpha-1A adrenergic receptor (Rattus norvegicus, UniProt P43140); test: DRUGMATRIX: Alpha-1A adrenergic receptor radioligand binding (ligand: prazosin); assay type: cell membranes, Wistar, Submaxillary gland, Membrane; settings: Not Active = under 50% inhibition at 10 µM
T1 sequence (P43140 whole entry): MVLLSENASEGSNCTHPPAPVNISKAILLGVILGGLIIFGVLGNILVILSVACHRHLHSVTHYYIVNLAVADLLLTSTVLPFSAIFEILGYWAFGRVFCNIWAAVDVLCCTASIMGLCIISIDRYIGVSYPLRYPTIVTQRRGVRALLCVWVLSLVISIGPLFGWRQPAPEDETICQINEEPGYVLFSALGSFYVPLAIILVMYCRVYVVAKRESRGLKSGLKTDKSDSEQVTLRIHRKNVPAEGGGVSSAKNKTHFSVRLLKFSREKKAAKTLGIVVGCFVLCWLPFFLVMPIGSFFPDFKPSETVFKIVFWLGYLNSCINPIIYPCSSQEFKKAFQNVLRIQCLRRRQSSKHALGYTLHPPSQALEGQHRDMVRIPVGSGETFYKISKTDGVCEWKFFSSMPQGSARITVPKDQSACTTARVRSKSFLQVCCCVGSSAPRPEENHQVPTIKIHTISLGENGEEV

Cytochrome P450 1A2 = biological target: T2, Cytochrome P450 1A2 (Homo sapiens, UniProt P05177); settings: bti-tn-5b1-4; note: in other assays of this panel Not Active means under 50% inhibition at 10 µM
T2 sequence (P05177 whole entry): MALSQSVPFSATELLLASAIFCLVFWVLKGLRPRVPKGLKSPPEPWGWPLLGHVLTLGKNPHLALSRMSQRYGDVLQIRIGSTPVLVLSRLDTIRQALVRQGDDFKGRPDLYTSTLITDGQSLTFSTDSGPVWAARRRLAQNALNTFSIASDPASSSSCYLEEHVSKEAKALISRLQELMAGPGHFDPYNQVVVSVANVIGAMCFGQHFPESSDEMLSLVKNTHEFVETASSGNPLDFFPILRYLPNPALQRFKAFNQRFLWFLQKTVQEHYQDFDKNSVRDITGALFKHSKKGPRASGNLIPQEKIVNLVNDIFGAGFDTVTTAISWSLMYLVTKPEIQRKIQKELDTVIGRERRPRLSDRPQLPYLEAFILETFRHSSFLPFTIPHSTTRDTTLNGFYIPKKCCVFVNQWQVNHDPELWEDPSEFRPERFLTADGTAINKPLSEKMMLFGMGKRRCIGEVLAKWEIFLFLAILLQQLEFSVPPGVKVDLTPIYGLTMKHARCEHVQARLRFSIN

[2] = DRUGMATRIX: Sodium/nucleoside co-transporter radioligand binding (ligand: nitrobenzylthioinosine); assay type: cell membranes, Cavia porcellus, Dunkin-Hartley, Cerebral cortex, Membrane; settings: Not Active = under 50% inhibition at 10 µM
[3] = biological target: C-C chemokine receptor type 2 (Homo sapiens, UniProt P41597); assay type: cell membranes, Membrane; settings: cho-k1; note: in other assays of this panel Not Active means under 50% inhibition at 10 µM
[4] = DRUGMATRIX: Potassium Channel [KATP] radioligand binding (ligand: [3H] Glyburide); assay type: cell membranes, Membrane; settings: hit-t15; Not Active = under 50% inhibition at 10 µM
Histamine H2 receptor = Histamine H2 receptor (Homo sapiens, UniProt P25021); assay type: cell membranes, CHO-K1, Membrane; settings: cho-k1; note: in other assays of this panel Not Active means under 50% inhibition at 10 µM
[5] = biological target: 5-hydroxytryptamine receptor 1B (Rattus norvegicus, UniProt P28564); assay type: cell membranes, Wistar, Cerebral cortex, Membrane; note: in other assays of this panel Not Active means under 50% inhibition at 10 µM
Chain of 5-hydroxytryptamine receptor 1B (P28564 whole entry): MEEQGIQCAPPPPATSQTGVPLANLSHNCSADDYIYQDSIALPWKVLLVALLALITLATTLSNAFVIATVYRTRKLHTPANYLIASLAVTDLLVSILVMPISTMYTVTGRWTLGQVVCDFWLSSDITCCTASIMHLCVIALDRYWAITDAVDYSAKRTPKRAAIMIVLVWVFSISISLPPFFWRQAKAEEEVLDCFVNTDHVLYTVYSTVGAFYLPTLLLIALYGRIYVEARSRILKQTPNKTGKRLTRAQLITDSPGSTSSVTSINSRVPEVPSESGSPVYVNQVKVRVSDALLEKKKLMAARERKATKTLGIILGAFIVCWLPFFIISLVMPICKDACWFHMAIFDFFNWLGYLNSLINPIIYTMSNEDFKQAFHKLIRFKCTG

Chain of C-C chemokine receptor type 2 (P41597 whole entry): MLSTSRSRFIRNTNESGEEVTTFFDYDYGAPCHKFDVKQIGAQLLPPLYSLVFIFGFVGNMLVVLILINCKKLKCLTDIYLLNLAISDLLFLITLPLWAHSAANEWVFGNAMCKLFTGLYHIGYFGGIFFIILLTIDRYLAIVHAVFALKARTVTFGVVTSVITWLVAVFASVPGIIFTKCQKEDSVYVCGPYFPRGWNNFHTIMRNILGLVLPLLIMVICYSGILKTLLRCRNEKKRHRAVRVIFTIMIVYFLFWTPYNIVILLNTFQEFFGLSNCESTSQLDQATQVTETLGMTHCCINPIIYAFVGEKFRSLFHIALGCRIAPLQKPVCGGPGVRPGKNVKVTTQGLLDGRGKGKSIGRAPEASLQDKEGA
Chain of Histamine H2 receptor (P25021 whole entry): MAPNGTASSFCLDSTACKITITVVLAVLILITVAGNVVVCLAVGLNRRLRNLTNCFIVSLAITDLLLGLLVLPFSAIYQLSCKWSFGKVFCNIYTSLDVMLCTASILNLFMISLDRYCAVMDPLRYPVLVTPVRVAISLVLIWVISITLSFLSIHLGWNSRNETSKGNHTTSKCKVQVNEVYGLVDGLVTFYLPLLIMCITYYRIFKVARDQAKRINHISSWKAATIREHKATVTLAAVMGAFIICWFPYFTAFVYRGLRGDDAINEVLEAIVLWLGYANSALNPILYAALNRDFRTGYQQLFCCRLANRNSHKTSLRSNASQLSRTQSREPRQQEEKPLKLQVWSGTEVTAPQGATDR

| SMILES | IC50 [1] | IC50 (Cytochrome P450 1A2) | Ki (Cytochrome P450 1A2) | IC50 [2] | Ki [2] | IC50 [3] | IC50 [4] | Ki [4] | IC50 (Histamine H2 receptor) | IC50 [5] | IC50 ([1]; read-out: IC50) | Ki ([1]; read-out: Ki) |
| --- | --- | --- | --- | --- | --- | --- | --- | --- | --- | --- | --- | --- |
| O=C(N/N=C/c1ccc([N+](=O)[O-])o1)c1cc([N+](=O)[O-])cc([N+](=O)[O-])c1O [NIFURSOL] | Not Active | Not Active | Not Active | Not Active | Not Active | Not Active | Not Active | Not Active | Not Active | Not Active | – | – |
| CC(C)NNC(=O)c1ccncc1 [IPRONIAZID] | Not Active | Not Active | Not Active | Not Active | Not Active | Not Active | Not Active | Not Active | Not Active | Not Active | – | – |
| CC(C(=O)O)c1cccc(Oc2ccccc2)c1 (stereo unspecified) [FENOPROFEN] | Not Active | Not Active | Not Active | Not Active | Not Active | Not Active | Not Active | Not Active | Not Active | Not Active | – | – |
| O=C(O)CCNC(=O)c1ccccc1 [BETAMIPRON] | Not Active | Not Active | Not Active | Not Active | Not Active | Not Active | Not Active | Not Active | Not Active | Not Active | – | – |
| C#C[C@]1(OC(C)=O)CC[C@H]2[C@@H]3CCC4=C[C@@H](OC(C)=O)CC[C@@H]4[C@H]3CC[C@@]21C [ETHYNODIOL DIACETATE] | Not Active | Not Active | Not Active | Not Active | Not Active | Not Active | Not Active | Not Active | Not Active | Not Active | – | – |
| Oc1cccc(O)c1O [PYROGALLOL] | Not Active | Not Active | Not Active | Not Active | Not Active | Not Active | Not Active | Not Active | Not Active | Not Active | – | – |
| O=C/C=C/c1ccccc1 | Not Active | Not Active | Not Active | Not Active | Not Active | Not Active | Not Active | Not Active | Not Active | Not Active | – | – |
| C[n+]1ccc(-c2cc[n+](C)cc2)cc1.[Cl-].[Cl-] [PARAQUAT DICHLORIDE] | Not Active | Not Active | Not Active | Not Active | Not Active | Not Active | Not Active | Not Active | Not Active | Not Active | – | – |
| CCCN(CCC)S(=O)(=O)c1ccc(C(=O)O)cc1 [PROBENECID] | Not Active | Not Active | Not Active | Not Active | Not Active | Not Active | Not Active | Not Active | Not Active | Not Active | – | – |
| C#CC1(O)CC[C@H]2[C@@H]3CCC4=CC(=O)CC[C@@H]4[C@H]3CC[C@@]21CC (stereo partly specified) [NORGESTREL] | Not Active | Not Active | Not Active | Not Active | Not Active | Not Active | Not Active | Not Active | Not Active | Not Active | – | – |
| CC[C@H]1CN2CCc3cc(OC)c(OC)cc3[C@@H]2C[C@@H]1C[C@H]1NCCc2cc(OC)c(OC)cc21 [EMETINE] | – | Not Active | Not Active | Not Active | Not Active | Not Active | Not Active | Not Active | Not Active | Not Active | 6.53 µM | 2.64 µM |
